Experimental findings from US9585957B2, “Adenosine receptor agonists and antagonists to modulate T cell responses” (THE JOHNS HOPKINS UNIVERSITY, priority 2007, dated 2017) are described below.

pIC50: −log10 of the molar value. Like-named read-outs stand apart in the source and are kept apart here.

The subject of assay [1] is 6.5+ T cells in C3HA mice. In words: Ex vivo tolerance studies: in vitro rechallenge of T cells harvested from vehicle- or CGS-treated C3HA mice. The protocol:
1.2×10^6 clonotypic 6.5^+ T cells were adoptive transferred into C3HA recipient mice as described above. On the second or third day (as noted) after transfer the splenocytes and lymphocytes were harvested and pooled. 2×10^5 of the pooled cells were incubated in 96-well round bottom plates with varying concentrations of HA class II peptide for 24 hours. A portion of the supernatant were withdrawn and later assayed for IL-2 and IFN-γ productions by ELISA. The wells were then pulsed with [^3H]thymidine for 16 hours and proliferation determined by tritium incorporation, as described above. All samples were performed in triplicate.

In assay [2] the test system is 6.5+ T cells in C3HA mice. In words: Survival of C3HA mice after adoptive transfer of 6.5+ T cells (mouse model of autoimmunity). It counts as in vivo. On the procedure:
Clonotypic CD4^+ T cells were harvested from 6.5^+ transgenic mice. The unfractionated population was resuspended to contain 1.2×10^6 6.5^+ T cells in 200 uL of HBSS for i.v. injection through the tail vein of C3HA mice. […] The percentage of CD4^+, 6.5^+, Thy 1.1^−, Thy 1.2^− clonotypic T cells was determined by flow cytometric analysis. CD44 level was also analyzed to ensure that these clonotypic T cells were not activated in donor mice and were naive in phenotype. The cells were washed three times with HBSS and the unfractionated population was resuspended to contain the appropriate number of clonotypic T cells in 200 uL of HBSS for i.v. injection through the tail vein of C3HA.
A survival curve was generated from two separate experiments for a total of 17 mice for each condition.

Another assay concerns A.E7 T cell clones. Put plainly: Cytokine production and CD25 expression of A.E7s stimulated with anti-CD3 and anti-CD28 in the presence of CGS. The format is cell-based. Conditions: for pIC50: T-cell. On the procedure:
Studies were conducted to determine the effects of A2a receptor stimulation on T cell function. A.E7 is a clonotypic CD4', Th1 T cell clone specific for pigeon cytochrome c (PCC) and is maintained as previously described (Powell, […]. & Schwartz, R. H. Inhibition of cell cycle progression by rapamycin induces T cell clonal anergy even in the presence of costimulation. J Immunol 162, 2775-84 (1999)). A.[…] were rendered anergic with anti-CD3 or by incubation with APC, PCC and 1 pM CGS-21680. For antibody induced anergy, 6-well plates were previously coated with anti-CD3 three hours prior to stimulation and washed with PBS. For mock stimulations, the well was not coated with anti-CD3. A.[…] were incubated in the coated well overnight at 37° C., then harvested and washed extensively and rested (24 hours for CAMP measurement, 4-6 days for proliferation and cytokine production). […] To assess proliferation to PCC, T cells were extensively washed and 5×10^6 cells were added to 50×10^4 irradiated BIO.A splenocytes and increasing doses of PCC in triplicate in a 96-well flat-bottomed plate. After 48 hours, cells were pulsed with [^3H] thymidine and harvested 16 hrs later. Tritium incorporation was determined by a Packard Matrix 96 direct beta counter (Packard bioscience). […] All conditions were done in triplicate and were cultured overnight. Supernatant was collected and assessed for cytokine levels (eBioscience for IL-2, IFN-y, TNF-a; R&D Systems for GM-CSF) as per manufacturers' instructions. For each sample, multiple dilutions of the supernatant were assayed and concentration was determined based upon the dilution that best fit the most linear aspect of the standard curve. For CD25 measurements, the cells used for cytokine production were stained with anti-CD25, harvested and measured by flow cytometry.

The subject of the next assay is LAG-3. Put plainly: LAG-3 expression by RT-PCR in 6.5+ T cells sorted from CGS-treated C3HA mice. Conditions: T cells from CGS-treated versus vehicle-treated C3HA mice (FIG. 5a). It counts as in vivo. The protocol: For in vivo studies, recipient C3HA mice were given 1.2×10^6 6.5^+ donor T cells as described above. On Day 3, donor T cells were sorted and cDNA generated as above. RT-PCR was performed as previously described (Safford et al. Nat Immunol. 2005; 6:472-480).
Recipient mice are given 1.2×10^6 donor T cells as described above. On Day 4, cells from spleens and lymph nodes are harvested and pooled. They are enriched for CD4^+ T cells via negative selection using biotinylated anti-CD8 (Ly-2, 53-6.7), anti-B220 (RA3-6B2) and anti-Thy 1.2(30-H12) antibodies (all from BD Biosciences PharMingen), and MACS streptavidin microbeads and AutoMACS column (Miltenyi Biotech) to deplete CD8^+ T cells, B cells and recipient cells (Thy 1.2′). The remaining cells are then sorted on Thy 1. I and CD4 using FACSAria cell sorter to yield a CD4′, 6.5′ T cell population of greater than 95% purity. RT-PCR was performed as previously described’.

In assay [3] the test system is 6.5 TCR transgenic T cells. Put plainly: Anergy and LAG-3 induction in primary 6.5 TCR transgenic CD4+ T cells incubated with HA and CGS, then rechallenged. The format is cell-based, mice. On the procedure: Splenocytes and lymphocytes from A2a receptor wt or null 6.5^+ mice (see below) were harvested and enriched for CD4^+ T cells via negative selection with the CD4^+ T cell isolation kit and LS MACs column (all from Miltenyi Biotech, Auburn, Calif.). […] The T cells were rechallenged for 3-4 hours with 100 ug/mL HA class II peptide, GolgiStop (BD PharMingen) and irradiated APCs.
The cells were harvested, mRNA isolated with Trizol and cDNA was generated. RT-PCR was performed as previously described (Safford et al. Nat Immunol. 2005; 6:472-480).
Splenocytes and lymphocytes from A2a receptor wt or null, 6.5^+ mice were harvested and enriched for CD4′ T cells via negative selection with the CD4^+ T cell isolation kit and LS MACs column (all from Miltenyi Biotech, Auburn, Calif.). […] Irradiated splenocytes from mice of the same A2a receptor genotype were used as APCs, at a 10:1 ratio with T cells. After 3 days, the T cells were harvested and isolated via a ficoll gradient, washed extensively and immediately rechallenged for intracellular staining Briefly, the 1×10^5 T cells were stimulated for 3-4 hours with 5×10^5 irradiated A2a receptor wt APCs, […] HA class II peptide and a 1:1000 dilution of GolgiStop (BD PharMingen), in a total volume of […]. After the stimulation, the cells were washed, stained with anti-6.5 and anti-CD4 antibodies, permeablized and fixed, then stained with anti-IFN-y antibody. Finally, the cells were washed and IFN-y production of […], 6.5^+ T cells was analyzed by flow cytometry.

Regarding `CCNC(=O)[C@H]1O[C@@H](n2cnc3c(N)nc(NCCc4ccc(CCC(=O)O)cc4)nc32)[C@H](O)[C@@H]1O` [CGS, 2-p-(2-carboxyethyl)phenethyl-amino-5-N-ethyl-carboxamidoadenosine], the “proliferation and cytokine production of harvested cells, two days after adoptive transfer” value in assay [1] (CGS-treated versus vehicle-treated mice, no CGS during rechallenge) is “equal proliferation and cytokine production”. For the same compound, in assay [1] (T cells from CGS-treated versus vehicle-treated mice, no CGS during rechallenge (FIG. 4b)), the “proliferation following in vitro stimulation, Day 3” value is “significant reduction in proliferation”. The “IFN-γ production following in vitro stimulation, Day 3” value in assay [1] (T cells from CGS-treated versus vehicle-treated mice, no CGS during rechallenge (FIG. 4c)) is listed as “significant reduction”. In assay [2] (C3HA mice receiving LAG-3 null T cells, 4 day treatment with CGS (FIG. 5c)), the “effect on mice receiving LAG-3 null T cells” value is reported as “no affect”. In addition, the “mice in which death was prevented, Wt T cells” value in assay [2] (C3HA mice receiving Wt T cells, 4 day treatment with CGS (FIG. 5c)) came out at 100%. The “long-term survival of mice” value in assay [2] (C3HA mice, lethal dose of 6.5+ T cells, CGS 2.5 mg/kg i.p. twice daily for four days after transfer (FIG. 4a)) is 80%. Also, the “protection of mice given A2a receptor KO T cells” value in assay [2] (C3HA recipients given A2a receptor KO 6.5+ T cells, CGS treatment (FIG. 4d)) is “fails to protect”. In the assay with A.E7 T cell clones (A.E7 T cell clones activated with anti-CD3 and anti-CD28 in the presence of CGS), the cytokine production result is on record as “dose-dependent inhibition”. Also, the pIC50 was 8.04 with A.E7 T cell clones (read-out: ID50, inhibition of GM-CSF production); 6.12 with A.E7 T cell clones (read-out: ID50, inhibition of IFN-γ production); 8.33 in the assay on A.E7 T cell clones (read-out: ID50, inhibition of IL-2 production); 7.00 with A.E7 T cell clones (read-out: ID50, inhibition of TNF-α production). In addition, in the assay on A.E7 T cell clones (anti-CD3 and anti-CD28, 20 nM CGS (FIG. 1d)), the “production of the chemokine MIP-1α” value is listed as “not inhibited”. For the same compound, the “TCR-induced CD25 expression” value with A.E7 T cell clones (anti-CD3 and anti-CD28, 1 μM CGS (FIG. 1b)) is “did not inhibit”. Further, the IL-2 production result with A.E7 T cell clones (anti-CD3 and anti-CD28 in the presence of the A2a receptor agonist, 20 nM CGS (FIG. 1d)) is reported as “markedly decreased”. In addition, the “kinetics of LAG-3 expression in T cells” value in the assay on LAG-3 is “quicker and more robust”. In addition, the “IFN-γ production upon rechallenge by intracellular staining” value in assay [3] (A2a receptor Wt 6.5 T cells, HA with 1 μM CGS during primary stimulation (FIG. 3a)) is “hyporesponsive upon subsequent stimulation”. Moreover, the “CGS-induced anergy in A2a receptor null T cells” value in assay [3] (A2a receptor null 6.5 T cells, HA with 1 μM CGS (FIG. 3a)) was “resistant to CGS-induced anergy”. Besides, in assay [3] (CD4+ 6.5+ primary T cells, irradiated APCs and HA, 1 μM CGS, 3 days, mRNA (FIG. 3b)), the LAG-3 expression entry is given as “increase in LAG-3 expression”. In addition, in assay [3] (CGS plus exogenous IL-2), the “induction of LAG-3 with exogenous IL-2 added” value was “abrogated”.
